# Data taken from publication PMC11320730, “5-Methoxy-2-aminoindane Reverses Diet-Induced Obesity and Improves Metabolic Parameters in Mice: A Potential New Class of Antiobesity Therapeutics” (ACS Pharmacology & Translational Science, 2024).
# pKi: −log10 of the molar value.
# Key:
# 5-HT2B receptor = target: 5-HT2B receptor; design: method as in PMID 30904940; settings: cited from earlier work
# MAO-B = system: MAO-B; design: method as in PMID 29458138; settings: cited from earlier work
# MAO-A enzyme = target: T1, MAO-A enzyme (Homo sapiens, UniProt P21397); experiment: Ligand binding assay (Eurofins); settings: read-out: inhibitory activity (% inhibition of the binding of a specific ligand)
# T1 construct: Eurofins (contract screening service)
# Description: (§1) MEAI at 10 μM was tested in ligand binding assays at Eurofins Inc., as described previously.[20] Compound binding was calculated as a % inhibition of the binding of a ligand specific for each target. Results showing an inhibition or stimulation higher than 50% are considered to represent significant effects of MEAI. In each experiment, and if applicable, the respective reference compound was tested concurrently with MEAI and the data were compared with historical values determined at Eurofins. The experiment was accepted in accordance with the Eurofins validation Standard Operating Procedure.
# 5-HT1A = target: T2, 5-HT1A (Homo sapiens, UniProt P08908); experiment: Ligand binding assay (Eurofins); settings: read-out: inhibitory activity (% inhibition of the binding of a specific ligand)
# T2 construct: Eurofins (contract screening service)
# Description: as §1
# dopamine D2 receptor = target: T3, dopamine D2 receptor (Homo sapiens, UniProt P14416); experiment: Ligand binding assay (Eurofins); settings: read-out: inhibitory activity (% inhibition of the binding of a specific ligand)
# T3 construct: Eurofins (contract screening service)
# Description: as §1
# 5-HT2A = target: T4, 5-HT2A (Homo sapiens, UniProt P28223); experiment: Ligand binding assay (Eurofins); settings: read-out: inhibitory activity (% inhibition of the binding of a specific ligand)
# T4 construct: Eurofins (contract screening service)
# Description: as §1
# [1] = system: hepatic lipid metabolism genes; experiment: Real-time PCR of liver mRNA in DIO mice; format: in vivo; settings: 40 mg/kg/day
# Description: (§2) Male C57BL/6 mice were used to establish DIO by feeding them a high-fat diet (HFD; 60% cal/L fat, 20% cal/L protein, and 20% cal/L carbohydrates; Research Diet, D12492) for 18 weeks. After this period, mice were treated with either vehicle (sterile water, N = 8) or MEAI (N = 11) daily for 28 days by gavage at a dose of 40 mg/kg/day. Age-matched control mice (N = 10) on a standard diet (STD; 14% kcal fat, 24% kcal protein, 62% kcal carbohydrates; NIH-31 rodent diet) received vehicle daily. The body weight of all mice was monitored daily, and total body fat and lean mass were determined by EchoMRI-100H (Echo Medical Systems LLC, Houston, Texas, USA). On day 29, at the end of the experimental period, mice were euthanized by a cervical dislocation under anesthesia. The kidneys, brain, liver, and fat pads were removed and weighed, and samples were either snap-frozen or fixed in buffered 4% formalin. Trunk blood was collected to determine the biochemical parameters.
# mRNA from livers was extracted using a Bio-Tri RNA lysis buffer (Bio-Lab, Israel), followed by DNase I treatment (Thermo Scientific, Illinois, USA), and reverse transcribed using the qScript cDNA Synthesis kit (Quantabio, Beverly, Massachusetts, USA). Real-time PCR was performed using an iTaq Universal SYBR Green Supermix (Bio-Rad, California, USA) and the CFX connect ST system (Bio-Rad, California, USA). The full list of primers is available as Table S1.
# C57Bl/6 mice = experiment: Acute single oral dose of MEAI: drug tolerability; format: in vivo; settings: lean male mice
# Description: Male 6-week-old C57Bl/6 mice (Harlan, Israel) were maintained in standard conditions under a 12 h light/dark cycle and fed ad libitum. A total of 32 animals were divided into four experimental groups (N = 8 mice per group) receiving single doses of 40, 60, or 100 mg/kg of MEAI or vehicle (sterile water), which was administered via oral gavage 2 h prior to the dark phase. The animals were monitored for 48 h postdose for drug tolerability, food and water intakes, and activity and metabolic parameters. At the end of the experiment, the animals were euthanized, and tissues (brain, liver, fat, and kidney) and blood were collected and stored in a frozen state for future analyses.
# DIO C57BL/6 mice = experiment: Multiparameter metabolic assessment in DIO mice; format: in vivo
# Description: as §2
# The metabolic profiles and food and water intakes of the mice were assessed using the Promethion High-Definition Behavioral Phenotyping System (Sable Instruments, Inc., Las Vegas, Nevada, USA). MetaScreen software version 2.2.18.0 was used for data acquisition and instrument control. Raw data were processed using ExpeData version 1.8.4 with an analysis script detailing all aspects of the data transformation. Mice with free access to food and water, housed at temperatures of (22–23 °C), were subjected to a standard 12 h light/12 h dark cycle, which consisted of a 48 h acclimation period followed by 24 h of sampling after dosing. Respiratory gases were measured using the GA-3 gas analyzer (Sable Systems, Inc., Las Vegas, Nevada, USA) employing a pull-mode negative-pressure system. Airflow was measured and controlled by an FR-8 instrument (Sable Systems, Inc., Las Vegas, Nevada, USA) at a flow rate of 2000 mL/min. Water vapor was continuously measured, and its dilution effect on O2 and CO2 was mathematically compensated. Respiratory exchange rate (RER) was calculated as the ratio of CO2 produced (VCO2) to O2 consumed (VO2) using eq 1): [drawing 1] 1
# Total energy expenditure (TEE) was calculated using VO2 and RER, according to eq 2: [drawing 2] 2
# Fat oxidation (FO) and carbohydrate oxidation (CHO) were calculated using VO2 and VCO2 based on eqs 3 and 4, respectively: [drawing 3] 3 [drawing 4] 4
# Energy balance and energy flux were derived from eqs 5 and 6: [drawing 5] 5 [drawing 6] 6
# The thermic effect of food for each animal was calculated based on its individual food intake in a period of 24 h according to the specific percentage of carbohydrates, fats, and proteins in the consumed diet.
# The basal energy expenditure was calculated based on the mean energy expenditure (EE) during the lowest EE in a 30 min period, in kilocalories per hour (kcal/h). This calculation represented the animal’s basal metabolic rate.
# [2] = DIO mice, 40 mg/kg/day, vs HFD vehicle
# T3 sequence (P14416 whole entry, species assumed): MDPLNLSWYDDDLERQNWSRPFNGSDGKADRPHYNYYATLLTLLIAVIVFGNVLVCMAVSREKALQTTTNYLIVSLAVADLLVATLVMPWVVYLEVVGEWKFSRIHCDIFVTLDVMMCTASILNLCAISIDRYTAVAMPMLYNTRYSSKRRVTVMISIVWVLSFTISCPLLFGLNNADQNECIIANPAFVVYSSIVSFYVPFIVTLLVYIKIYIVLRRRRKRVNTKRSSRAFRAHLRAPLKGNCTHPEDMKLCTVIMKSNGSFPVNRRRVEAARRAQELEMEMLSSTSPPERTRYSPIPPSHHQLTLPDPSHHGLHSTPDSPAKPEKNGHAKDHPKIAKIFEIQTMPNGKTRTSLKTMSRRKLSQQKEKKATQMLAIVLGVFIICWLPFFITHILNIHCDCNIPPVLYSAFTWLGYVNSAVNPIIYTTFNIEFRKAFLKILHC
# T1 sequence (P21397 whole entry, species assumed): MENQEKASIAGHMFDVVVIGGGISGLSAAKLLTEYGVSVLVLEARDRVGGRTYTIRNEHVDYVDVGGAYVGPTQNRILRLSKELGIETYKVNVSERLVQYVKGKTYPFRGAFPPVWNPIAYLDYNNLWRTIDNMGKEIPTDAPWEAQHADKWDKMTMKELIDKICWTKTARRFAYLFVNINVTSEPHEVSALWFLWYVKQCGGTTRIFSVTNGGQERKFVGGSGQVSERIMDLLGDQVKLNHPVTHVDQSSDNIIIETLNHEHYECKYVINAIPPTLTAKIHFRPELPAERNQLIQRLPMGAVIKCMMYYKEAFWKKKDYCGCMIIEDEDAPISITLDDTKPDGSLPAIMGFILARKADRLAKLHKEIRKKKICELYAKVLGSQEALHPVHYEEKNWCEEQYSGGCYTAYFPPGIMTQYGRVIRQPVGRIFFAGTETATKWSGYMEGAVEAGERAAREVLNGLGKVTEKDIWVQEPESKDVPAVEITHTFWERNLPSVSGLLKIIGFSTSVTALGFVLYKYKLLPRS
# T2 sequence (P08908 whole entry, species assumed): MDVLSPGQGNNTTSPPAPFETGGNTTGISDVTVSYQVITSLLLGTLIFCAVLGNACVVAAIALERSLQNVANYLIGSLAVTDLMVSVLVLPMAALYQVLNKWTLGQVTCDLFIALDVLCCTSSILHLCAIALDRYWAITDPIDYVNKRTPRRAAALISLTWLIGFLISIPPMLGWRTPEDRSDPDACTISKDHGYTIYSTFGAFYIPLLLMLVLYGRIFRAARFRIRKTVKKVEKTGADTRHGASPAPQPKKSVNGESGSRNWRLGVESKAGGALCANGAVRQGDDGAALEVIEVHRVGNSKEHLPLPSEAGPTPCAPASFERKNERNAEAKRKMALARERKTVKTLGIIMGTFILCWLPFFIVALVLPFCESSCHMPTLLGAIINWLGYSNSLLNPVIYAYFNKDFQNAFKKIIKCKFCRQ
# T4 sequence (P28223 whole entry): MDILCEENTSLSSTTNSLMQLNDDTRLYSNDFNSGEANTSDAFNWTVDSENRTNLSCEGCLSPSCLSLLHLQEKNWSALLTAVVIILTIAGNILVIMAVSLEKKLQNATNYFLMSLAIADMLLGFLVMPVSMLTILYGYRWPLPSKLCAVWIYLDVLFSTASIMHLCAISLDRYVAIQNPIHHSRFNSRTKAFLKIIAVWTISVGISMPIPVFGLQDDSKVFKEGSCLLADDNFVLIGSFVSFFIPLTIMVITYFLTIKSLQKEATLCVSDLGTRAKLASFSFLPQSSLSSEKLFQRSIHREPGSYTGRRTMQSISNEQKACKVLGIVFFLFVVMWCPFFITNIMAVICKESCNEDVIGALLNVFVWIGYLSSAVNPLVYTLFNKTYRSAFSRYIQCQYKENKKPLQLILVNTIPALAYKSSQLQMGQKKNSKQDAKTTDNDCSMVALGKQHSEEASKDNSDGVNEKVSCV
smiles,measurement,setting,value
"COc1ccc2c(c1)CC(N)C2.Cl (stereo not drawn) [MEAI, 2,3-Dihydro-5-methoxy-1H-inden-2-amine hydrochloride]",pKi,5-HT2B receptor,5.32
same,binding inhibition,MAO-B,unaffected
same,inhibition at 10 µM,MAO-A enzyme,> 50%
same,inhibition at 10 µM,5-HT1A,> 50%
same,inhibition at 10 µM,dopamine D2 receptor,> 50%
same,inhibition at 10 µM,5-HT2A,> 50%
same,7-dehydrocholesterol reductase (Dhcr) expression,[1],no significant changes
same,Acaca mRNA expression,[1],significantly decreased
same,Crebp expression,[1],did not affect
same,Dgat2 expression,[1],did not affect
same,Fabp1 mRNA expression,[1],significantly decreased
same,Fasn mRNA expression,[1],significantly decreased
same,G6pdx mRNA expression,[1],significantly decreased
same,Hmgcr expression,[1],no significant changes
same,LDL receptor (Lldr) expression,[1],no significant changes
same,Nr1h3 expression,[1],no significant changes
same,Pparg expression,[1],did not affect
same,Scd1 mRNA expression,[1],significantly decreased
same,Srebp1 expression,[1],did not affect
same,hormone-sensitive lipase (Hsl) mRNA expression,[1],no significant changes
same,Cd36 mRNA expression,[1]; p < 0.05,significantly downregulated
same,lipoprotein lipase (Lpl) mRNA level,[1]; p < 0.05,significant decrease
same,deaths after dosing,"C57Bl/6 mice; single oral dose 100 mg/kg, within a few hours",two subjects in the 100 mg/kg group died
same,drug tolerability,"C57Bl/6 mice; single oral dose, 40 and 60 mg/kg",well-tolerated
same,basal energy expenditure,"DIO C57BL/6 mice; DIO mice, 40 mg/kg/day",significantly boosted
same,cumulative TEE,"DIO C57BL/6 mice; DIO mice, 40 mg/kg/day",increases
same,water consumption,"DIO C57BL/6 mice; DIO mice, 40 mg/kg/day",did not exert any significant influence
same,total food intake over 24 h,"DIO C57BL/6 mice; DIO mice, 40 mg/kg/day, across all groups",similar
same,overall energy balance,"DIO C57BL/6 mice; DIO mice, 40 mg/kg/day, across the groups",no significant changes
same,thermodynamic (thermic) effect of food,"DIO C57BL/6 mice; DIO mice, 40 mg/kg/day, between groups",remained unchanged
same,RER,"DIO C57BL/6 mice; DIO mice, 40 mg/kg/day, in comparison to STD vehicle group",slightly decreased
same,differences in TEE by ANCOVA using lean mass as covariant,"DIO C57BL/6 mice; DIO mice, 40 mg/kg/day, p = 0.0097 vs HFD vehicle",treatment-dependent
same,average energy expenditure,"DIO C57BL/6 mice; DIO mice, 40 mg/kg/day, vs HFD and STD vehicle, light and dark phases",significant increase
same,CHO levels,DIO C57BL/6 mice; [2],no direct effect of the drug itself observed
same,carbon dioxide production,DIO C57BL/6 mice; [2],slightly increased
same,oxygen consumption,DIO C57BL/6 mice; [2],slightly increased
same,overall rate of FO,"DIO C57BL/6 mice; DIO mice, 40 mg/kg/day, vs HFD- and STD-vehicle groups",increase
same,energy flux,"DIO C57BL/6 mice; DIO mice, 40 mg/kg/day, vs vehicle groups",significant increase
same,meal size (food intake per meal),"DIO C57BL/6 mice; HFD-fed mice regardless of MEAI treatment (40 mg/kg/day), vs STD",significant reduction
